Test results taken from patent US6992060B2, “Prolonged efficacy of islet neogenesis therapy methods with a gastrin/CCK receptor ligand and an EGF receptor ligand composition in subjects with preexisting diabetes” (Waratah Pharmaceuticals, Inc., priority 2001, dated 2006).

System: rats
Assay: Induction of diabetes by intravenous streptozotocin
Assay type: in vivo, rat
Conditions: 50 mg/kg intravenous injection
Experimental: Diabetes was induced by intravenous injection with 50 mg/kg streptozotocin (STZ), which reduced pancreatic insulin content by 95%. One week later, STZ diabetic rats (of weight 200–250 g) were administered either the vehicle alone as a control (labeled CON in FIG. 1), or were administered a combination of human gastrin 17 (4 μg/kg) and human TGFα (4 μg/kg) peptides (labeled GAS/TGF) by once-daily, intraperitoneal injections for 12 days. At 1, 2, 4 and 8 weeks after treatment, intraperitoneal glucose tolerance tests (IPGTT) were performed, to measure both blood glucose levels, and plasma insulin levels, in response to a challenge amount of glucose.

CN(N=O)C(=O)N[C@H]1C(O)O[C@H](CO)[C@@H](O)[C@@H]1O (mixture of isomers) [streptozotocin]
reduction of pancreatic insulin content: 95%
